# “Also recorded” adds a separate entry of the source. Like-named read-outs stand apart in the source and are kept apart here.
# What was measured:
# patients with HFrEF = conditions: result in words, cited from earlier work
# CYP2C8 = biological target: T1, CYP2C8 (Homo sapiens, UniProt P10632); experiment: In vitro inhibition by OM; type: in vitro ADME; conditions: result in words
# T1 sequence (P10632 1-490): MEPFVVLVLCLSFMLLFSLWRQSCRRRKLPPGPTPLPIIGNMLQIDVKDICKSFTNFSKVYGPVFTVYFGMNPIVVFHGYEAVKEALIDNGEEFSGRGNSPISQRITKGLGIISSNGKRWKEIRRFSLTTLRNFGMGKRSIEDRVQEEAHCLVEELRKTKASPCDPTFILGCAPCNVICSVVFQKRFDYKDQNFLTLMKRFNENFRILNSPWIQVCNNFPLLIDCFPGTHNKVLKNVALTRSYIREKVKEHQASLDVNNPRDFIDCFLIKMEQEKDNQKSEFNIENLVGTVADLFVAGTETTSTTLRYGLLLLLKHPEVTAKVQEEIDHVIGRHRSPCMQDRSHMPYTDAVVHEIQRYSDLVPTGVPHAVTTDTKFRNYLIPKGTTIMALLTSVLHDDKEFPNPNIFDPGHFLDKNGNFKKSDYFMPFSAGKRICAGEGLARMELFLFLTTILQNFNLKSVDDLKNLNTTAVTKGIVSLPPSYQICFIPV
# [1] = tested on: patients with heart failure with reduced ejection fraction
# Description: The primary outcome was a composite of the time to a heart failure event or cardiovascular death, whichever occurred first. A heart failure event was defined as an urgent clinic visit, emergency department visit or hospitalization for subjectively and objectively worsening heart failure leading to treatment intensification beyond changed oral diuretic therapy. Secondary outcomes were: the time to cardiovascular death; change in KCCQ Total Symptom Score (TSS) from baseline to Week 24 (scale from 0 to 100; higher score indicates fewer symptoms); time to first heart failure hospitalization; and time to all-cause death. All deaths, HF events, major cardiac ischemic events (myocardial infarction/unstable angina hospitalization, and coronary revascularization), and strokes were adjudicated by a blinded external Clinical Events Committee (Duke Clinical Research Institute) using standardized definitions.
# P-gp = P-gp (Homo sapiens, UniProt P08183); experiment: In vitro inhibition by OM; type: in vitro ADME; conditions: result in words
# [2] = tested on: patients with heart failure and reduced ejection fraction; type: in vivo, human; conditions: for Change in KCCQ total symptom score at week 24, least squares mean (SE): scale 0 to 100; for All-cause death, hazard ratio (95% CI) / Cardiovascular death, hazard ratio (95% CI) / Heart failure event, hazard ratio (95% CI) / Heart failure hospitalization, hazard ratio (95% CI) / Primary composite outcome, hazard ratio (95% CI): vs placebo; for Primary composite outcome, hazard ratio (95% CI): overall trial population
# Description: Patient eligibility requirements included age 18-85 years, New York Heart Association functional class (NYHA) II-IV symptoms, and ejection fraction of 35% or less. Participants were currently hospitalized for heart failure (in-patients) or had either an urgent visit to the emergency department or a hospitalization for heart failure (outpatients) within one year prior to randomization. […] Patients were required to receive standard drug and device therapy for heart failure consistent with regional clinical practice guidelines and doses optimized according to investigator judgment.
# Key exclusion criteria for patients included current hemodynamic or clinical instability requiring mechanical or intravenous medication, systolic blood pressure (SBP)<85 mmHg, estimated glomerular filtration rate (eGFR)<20 mL/min/1.73 m^2, recent acute coronary syndrome events or cardiovascular procedures (including planned), and other conditions that would adversely affect participation in the trial.
# All eligible participants were randomized 1:1 to oral administration of either placebo or omecamtiv mecarbil (pharmacokinetic-guided dosing: 25, 37.5 or 50 mg) twice daily. Pre-dose plasma concentrations of omecamtiv mecarbil were measured at weeks 2 and 6 with respective dose adjustments on weeks 4 and 8. The patient and investigator were blinded to the plasma concentrations and dispensed dose. The full schedule of assessments is provided in the protocol available at NEJM.org. Study drug was temporarily withheld if the participant experienced clinical signs or symptoms consistent with acute myocardial infarction or ischemia.
# The study was event-driven and was ended after approximately 1590 cardiovascular deaths. The overall type I error was 0.05 for 2-sided testing across primary and secondary endpoints with control for multiplicity testing. A single interim efficacy analysis was conducted after approximately two-thirds of the targeted number of cardiovascular deaths accrued with a one-sided alpha of 0.0005. Given the negligible impact of this interim on the final alpha, the full 0.05 was used in the final analysis consistent with the Haybittle-Peto approach. […] The mean differences in the KCCQ TSS change from baseline to Week 24 were estimated using a mixed model stratified by randomization setting (inpatient and outpatient) containing baseline TSS value, region, baseline eGFR, scheduled visit, treatment group, and the interaction of treatment group with scheduled visit. A joint omnibus F-test was used to test the treatment effect for the KCCQ TSS. An overall pooled estimate for the KCCQ TSS treatment difference to placebo were conducted using a likelihood based approach. The prespecified safety analyses included: serious adverse events; adverse events associated with discontinuation of study treatment; “adverse events of interest” i.e., ventricular arrhythmias requiring treatment and positively adjudicated major cardiac ischemic events (including myocardial infarction, hospitalization for unstable angina, coronary revascularization). […] All analyses were performed with the use of SAS software, version 9.4 (SAS Institute).
# The cumulative incidences of the primary outcome, heart failure events, death from cardiovascular causes and death from any cause were estimated with the use of the Kaplan-Meier method. Hazard ratios and 95% confidence intervals were estimated with the use of Cox regression models stratified by randomization location and region and treatment with omecamtiv mecarbil or placebo as explanatory variables. Analyses are based upon all participants who underwent randomization.
# [3] = N = 4120, median follow-up 21.8 months
# [4] = component of primary composite, N = 4120
# P-gp, sequence (P08183 whole entry): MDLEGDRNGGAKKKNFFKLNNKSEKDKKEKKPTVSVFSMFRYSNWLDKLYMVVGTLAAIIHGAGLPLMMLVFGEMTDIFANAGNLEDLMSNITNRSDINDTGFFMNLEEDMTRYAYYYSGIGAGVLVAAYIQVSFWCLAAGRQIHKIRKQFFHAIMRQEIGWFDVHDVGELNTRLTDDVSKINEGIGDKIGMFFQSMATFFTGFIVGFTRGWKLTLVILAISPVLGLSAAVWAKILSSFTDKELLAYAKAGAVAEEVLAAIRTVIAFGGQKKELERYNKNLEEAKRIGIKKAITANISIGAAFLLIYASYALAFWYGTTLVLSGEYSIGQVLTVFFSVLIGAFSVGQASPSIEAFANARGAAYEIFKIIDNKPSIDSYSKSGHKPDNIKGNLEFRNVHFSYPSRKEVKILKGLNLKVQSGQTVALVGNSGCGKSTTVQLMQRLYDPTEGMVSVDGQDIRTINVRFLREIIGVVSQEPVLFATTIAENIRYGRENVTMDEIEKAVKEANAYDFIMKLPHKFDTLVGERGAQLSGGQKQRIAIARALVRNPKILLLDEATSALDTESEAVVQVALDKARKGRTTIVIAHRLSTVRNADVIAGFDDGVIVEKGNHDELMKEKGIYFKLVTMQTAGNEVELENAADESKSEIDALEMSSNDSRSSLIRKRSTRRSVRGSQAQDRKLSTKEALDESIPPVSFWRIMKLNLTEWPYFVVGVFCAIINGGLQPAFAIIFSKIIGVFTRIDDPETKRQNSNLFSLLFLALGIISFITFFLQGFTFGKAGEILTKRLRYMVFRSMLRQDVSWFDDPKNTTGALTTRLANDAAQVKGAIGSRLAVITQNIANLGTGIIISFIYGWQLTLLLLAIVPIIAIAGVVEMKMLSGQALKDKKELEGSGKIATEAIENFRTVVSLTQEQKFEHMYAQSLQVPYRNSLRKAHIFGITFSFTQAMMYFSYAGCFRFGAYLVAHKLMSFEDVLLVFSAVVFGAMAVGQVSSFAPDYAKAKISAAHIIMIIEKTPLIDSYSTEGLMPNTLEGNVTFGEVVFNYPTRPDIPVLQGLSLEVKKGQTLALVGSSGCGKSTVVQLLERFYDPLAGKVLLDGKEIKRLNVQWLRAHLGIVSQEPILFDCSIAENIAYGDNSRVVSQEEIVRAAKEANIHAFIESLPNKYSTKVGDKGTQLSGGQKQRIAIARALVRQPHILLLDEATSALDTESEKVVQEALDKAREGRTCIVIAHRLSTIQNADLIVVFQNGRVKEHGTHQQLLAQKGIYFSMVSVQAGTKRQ
compound,measurement,setting,value
COC(=O)N1CCN(Cc2cccc(NC(=O)Nc3ccc(C)nc3)c2F)CC1 [omecamtiv mecarbil],"Left ventricular systolic and diastolic volumes, natriuretic peptide concentrations and heart rate","patients with HFrEF; oral therapy for 20 weeks, chronic HFrEF","reduced left ventricular systolic and diastolic volumes, plasma natriuretic peptide concentrations and heart rate; also recorded: decreased left ventricular systolic and diastolic volumes"
same,Cardiac performance,patients with HFrEF; short-term intravenous and longer-term oral therapy,improved cardiac performance
same,Inhibition of CYP2C8,CYP2C8,inhibitor
same,Reduction in fatal stroke,[1]; all patients randomized,42%
same,Reduction in the risk of first fatal or non-fatal stroke,[1]; all patients randomized,35%
same,"Adjudicated type of first stroke event: Hemorrhagic, %",[1]; in vivo,0.1%
same,"Adjudicated type of first stroke event: Ischemic (Non-hemorrhagic), %",[1]; in vivo,1.6%
same,"Adjudicated type of first stroke event: Undetermined, %",[1]; in vivo,0.1%
same,"Adjudicated type of first stroke event: Ischemic with hemorrhagic transformation, %",[1]; n = 4110,0.1%
same,"New onset atrial fibrillation/flutter, hazard ratio",[1]; no AF/F at screening,0.70
same,"New onset atrial fibrillation/flutter, hazard ratio",[1]; no history of AF/F,0.60
same,"Non-fatal and fatal stroke, hazard ratio",[1]; no history of atrial fibrillation,0.81
same,"Non-fatal and fatal stroke, hazard ratio",[1]; no history of stroke,0.78
same,"Primary endpoint, hazard ratio","[1]; patients with a history of stroke, vs placebo",0.86
same,"Primary endpoint, hazard ratio","[1]; patients with no stroke, vs placebo",0.93
same,Time to first stroke event,[1]; result in words,significantly reduced
same,"Fatal stroke, hazard ratio",[1]; vs placebo,0.56
same,"Non-fatal and fatal stroke, hazard ratio",[1]; with history of atrial fibrillation,0.49
same,"Non-fatal and fatal stroke, hazard ratio",[1]; with history of stroke,0.23
same,Inhibition of P-gp,P-gp,inhibitor
same,"Change in KCCQ total symptom score at week 24, difference vs placebo (95% CI)",[2]; Inpatients,2.5
same,"Change in KCCQ total symptom score at week 24, difference vs placebo (95% CI)","[2]; Inpatients, listed as Omecamtiv Mecarbil","2.5 (0.54, 4.46)"
same,"Change in KCCQ total symptom score at week 24, least squares mean (SE)",[2]; Inpatients,23.7 (0.70)
same,"All-cause death, % of patients",[2]; N = 4120,25.9%
same,"All-cause death, Events/100 patient-yrs",[2]; N = 4120,14.4 Events/100 patient-yrs
same,"All-cause death, no. of patients",[2]; N = 4120,1067 no.
same,"Cardiovascular death, Events/100 patient-yrs",[2]; N = 4120,10.9 Events/100 patient-yrs
same,"Heart failure event (first), % of patients",[2]; N = 4120,28.6%
same,"Heart failure event (first), no. of patients",[2]; N = 4120,1177 no.
same,"Heart failure event, Events/100 patient-yrs",[2]; N = 4120,18.7 Events/100 patient-yrs
same,"Heart failure hospitalization (first), % of patients",[2]; N = 4120,27.7%
same,"Heart failure hospitalization (first), no. of patients",[2]; N = 4120,1142 no.
same,"Heart failure hospitalization, Events/100 patient-yrs",[2]; N = 4120,18.0 Events/100 patient-yrs
same,"Primary composite outcome, Events/100 patient-yrs",[2]; N = 4120,24.2 Events/100 patient-yrs
same,"Primary composite outcome (first heart failure event or cardiovascular death), % of patients",[2]; [3],37.0%
same,"Primary composite outcome (first heart failure event or cardiovascular death), no. of patients",[2]; [3],1523 no.
same,"Change in KCCQ total symptom score at week 24, difference vs placebo (95% CI)",[2]; Outpatients,−0.46
same,"Change in KCCQ total symptom score at week 24, difference vs placebo (95% CI)","[2]; Outpatients, listed as Omecamtiv Mecarbil","−0.5 (−1.40, 0.48)"
same,"Change in KCCQ total symptom score at week 24, least squares mean (SE)",[2]; Outpatients,5.8 (0.34)
same,"Cardiovascular death as first event, % of patients",[2]; [4],8.4%
same,"Cardiovascular death as first event, no. of patients",[2]; [4],346 no.
same,Risk reduction of primary composite outcome compared to placebo,"[2]; overall population, median 22 months",8%
same,"Cardiovascular death, % of patients","[2]; secondary outcome, N = 4120",19.6%
same,"Cardiovascular death, no. of patients","[2]; secondary outcome, N = 4120",808 no.
same,"All-cause death, hazard ratio (95% CI)",[2],1.00
same,"Cardiovascular death, hazard ratio (95% CI)",[2],1.01
same,"Heart failure event, hazard ratio (95% CI)",[2],0.93
same,"Heart failure hospitalization, hazard ratio (95% CI)",[2],0.95
same,"All-cause death, hazard ratio (95% CI)",[2]; listed as Omecamtiv Mecarbil,"1.00 (0.92, 1.09)"
same,"Cardiovascular death, hazard ratio (95% CI)",[2]; listed as Omecamtiv Mecarbil,"1.01 (0.92, 1.11)"
same,"Heart failure event, hazard ratio (95% CI)",[2]; listed as Omecamtiv Mecarbil,"0.93 (0.86, 1.00)"
same,"Heart failure hospitalization, hazard ratio (95% CI)",[2]; listed as Omecamtiv Mecarbil,"0.95 (0.87, 1.03)"
same,"Primary composite outcome, hazard ratio (95% CI)",[2],0.92
same,"Primary composite outcome, hazard ratio (95% CI)",[2]; listed as Omecamtiv Mecarbil,"0.92 (0.86, 0.99)"

# Reference: US12194039B2, “Methods of treating heart failure by administering omecamtiv mecarbil” (Cytokinetics, Inc., priority 2020, dated 2025)
